Measured values as given in PubChem BioAssay (NCI).
“And” between values parts separate entries of the source, which are not always exact repeats. Equal entries are not always repeated.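 How tested: cells in 96-well plates exposed to compound for 48 hours at five concentrations. At the GI50, growth is halved. At the TGI there is no net growth.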

Tests used:
Test in all cases: DTP human tumour cell line panel, 48 h
COLO 205 colon = system: COLO 205 colon
MALME-3M melanoma = system: MALME-3M melanoma
U251 CNS = system: U251 CNS
RPMI-8226 leukemia = system: RPMI-8226 leukemia
A549 NSCLC = system: A549 NSCLC
SK-MEL-5 melanoma = system: SK-MEL-5 melanoma
NCI-H226 lung = system: NCI-H226 lung
HOP-62 NSCLC = system: HOP-62 NSCLC
K-562 leukemia = system: K-562 leukemia
UACC-257 melanoma = system: UACC-257 melanoma

Structure (SMILES)	GI50 (COLO 205 colon) [µM]	TGI (COLO 205 colon)	GI50 (MALME-3M melanoma) [µM]	TGI (MALME-3M melanoma)	GI50 (U251 CNS) [µM]	TGI (U251 CNS)	GI50 (RPMI-8226 leukemia) [µM]	TGI (RPMI-8226 leukemia) [µM]	GI50 (A549 NSCLC) [µM]	TGI (A549 NSCLC)	GI50 (SK-MEL-5 melanoma) [µM]	TGI (SK-MEL-5 melanoma)	GI50 (NCI-H226 lung) [µM]	TGI (NCI-H226 lung) [µM]	GI50 (HOP-62 NSCLC) [µM]	TGI (HOP-62 NSCLC)	GI50 (K-562 leukemia) [µM]	TGI (K-562 leukemia) [µM]	GI50 (UACC-257 melanoma) [µM]	TGI (UACC-257 melanoma)
CCN1CCN(c2nc(NCCCNc3ccnc4cc(Cl)ccc34)c3ccccc3n2)CC1	1.66	3.46 µM	1.78	3.45 µM	2.66	7.17 µM	2.12	6.04	2.84	11.9 µM	1.74	3.11 µM	4.97	26	1.79	4.91 µM	2.23	7.14	2.01	3.97 µM
Clc1ccccc1C(c1ccccc1)(c1ccccc1)n1ccnc1	1.76	3.28 µM and 29 µM	1.74	7.24 µM and 16.9 µM	2.48	11.8 µM and 49.8 µM	–	> 62.7	2.43	13.3 µM and 29.3 µM	2.61	10.4 µM and 22.3 µM	3.13	17.7	2.99	12.5 µM and 26.6 µM	–	> 42.1	3.43	14.2 µM and 25.2 µM
COc1ccc(C(=S)N2CCN(c3cccc(Cl)c3)CC2)cc1	> 100	> 100 µM	> 100	> 100 µM	> 100	> 100 µM	45.4	> 100	> 100	> 100 µM	84.2	> 100 µM	> 100	> 100	> 100	> 100 µM	72.8	> 100	> 100	> 100 µM
CN1CCN(CC#Cc2cccc(C(=O)c3cnn(-c4ccc(F)cc4)c3N)c2)CC1	> 25	> 25 µM	> 25	> 25 µM	> 25	> 25 µM	> 25	> 25	> 25	> 25 µM	> 25	> 25 µM	> 25	> 25	> 25	> 25 µM	> 25	> 25	> 25	> 25 µM
Cc1ccn2c3c(c(C(=O)O)c2c1)C(=O)c1ccccc1C3=O	2.62	8.75 µM	0.48	1.92 µM	15.7	> 100 µM	> 100	> 100	1.77	4.4 µM	0.679	1.97 µM	2.46	17.4	5.93	> 100 µM	> 100	> 100	4.41	> 60.3 µM
Nc1n[nH]c2ccc([C@@H]3Nc4ccc5[nH]ncc5c4[C@H]4[C@H]5CCC(C5)[C@H]43)cc12	0.375	5.68 µM	0.461	> 47.5 µM	0.435	> 100 µM	0.338	2.37	0.586	> 100 µM	0.403	2.6 µM	0.331	2.88	0.597	> 74 µM	0.264	> 100	15.8	> 100 µM
